Measurements as given in patent publication US8685934B2, “Methods for treating extreme insulin resistance in patients resistant to previous treatment with other anti-diabetic drugs employing an SGLT2 inhibitor and compositions thereof” (Bristol-Myers Squibb Company, priority 2009, dated 2014).
Read-outs that look alike come from different tables or passages of the source.

Key:
[1] = system: highly insulin-resistant T2DM patients poorly controlled with insulin plus metformin and/or thiazolidinediones; conditions: for Patients who required up-titration of insulin: throughout the 12-week double-blind period, placebo arm 4 patients; for Patients exposed to study medication for ≧84 days prior to insulin up-titration: versus 39.1% in the placebo arm
Protocol: Criteria for management of hyperglycemia were determined by fasting plasma glucose (FPG) measurements. For any FPG level >240 mg/dL at weeks 4 and 6, >220 mg/dL at week 8, or >200 mg/dL at week 10, the patient would be scheduled for a follow-up visit in 3 to 5 days. If FPG was still above the threshold at follow-up, a visit was scheduled in order to increase the insulin dose as clinically indicated. Patients who further lacked glycemic control despite up-titration, or whose modified insulin dose exceeded baseline, were discontinued from blinded treatment and entered into follow-up.
All patients were on insulin-sensitizer therapy for at least 6 weeks prior to enrollment and insulin-based therapy for at least 12 weeks prior to enrollment. The study protocol defined insulin-sensitizer therapy as metformin (stable dose ≧1000 mg) and/or pioglitazone (stable dose ≧30 mg) or rosiglitazone (stable dose 4 mg). Insulin-based therapy was defined as subcutaneous insulin for at least 12 weeks prior to enrollment, with 2 minimum insulin daily dose equivalent to 50 units (median 85 to 93 units across all study arms) of U100 insulin per day. The insulin regimen must have been stable for at least 6 weeks. In addition to 10 mg dapagliflozin or 20 mg dapagliflozin daily or placebo, 74.6% of patients received metformin (≧1000 mg daily) plus insulin; 16.9% of patients received metformin (≧1000 mg daily) plus pioglitazone (≧30 mg daily) or rosiglitazone (4 mg daily) plus insulin and 8.5% of patients received pioglitazone (≧30 mg daily) or rosiglitazone (4 mg daily) plus insulin.
Patients in Cohort 1 were evaluated for safety only. Patients in Cohort 2 were evaluated for safety and efficacy. The primary efficacy measure was change from baseline in HbAlc, at week 12, last observation carried forward (LOCF). If no week 12 assessment was available, the last observation prior to week 12 was used. Secondary efficacy measures included changes from baseline at week 12 (LOCF) in FPG and insulin dose, the proportion of patients achieving a decrease in HbAlc>0.5% from baseline at week 12 (LOCF), and the proportion of patients achieving HbAlc<7% at week 12 (LOCF). Tertiary endpoints included changes from baseline in total body weight and in postprandial glucose (PPG) measured by an oral glucose tolerance test (OGTT).
Patients in Cohort 2 were evaluated for safety and efficacy. The primary efficacy measure was change from baseline in HbAlc at week 12, last observation carried forward (LOCF). The analysis was done excluding data after up-titration of insulin. If no week 12 assessment was available, the last observation prior to week 12 was used.
For Cohort 2, the sample size target of 22 patients per treatment group was chosen to allow for the calculation of 95% confidence intervals for the primary endpoint with a half-width of 0.42% for each treatment group. This assumed a 1% standard deviation for the primary endpoint in each of the dapagliflozin and placebo arms. With the same assumption, the half-width of a 95% confidence interval for the difference between any two treatment mean changes was estimated to be 0.59%. The primary efficacy data set consisted of all randomized patients who took at least one dose of double-blind study medication during the treatment phase. The analyses of the efficacy variables (except change from baseline in insulin dose) were done excluding data after up-titration of insulin. The analyses for changes from baseline in HbAlc, FPG, insulin dose, and total body weight at week 12 (LOCF) were performed using an analysis of covariance (ANCOVA) model with treatment group as an effect and baseline value as a covariate. Point estimates and 95% confidence intervals were calculated for mean changes within each treatment group and for differences in mean changes between the dapagliflozin and placebo groups.

[2] = system: highly insulin-resistant T2DM patients poorly controlled with insulin plus metformin and/or thiazolidinediones; conditions: for Adverse events, % of patients: placebo 65.2%; for Patients with genital tract infections: double-blind period, placebo one; for Events of pollakiuria, patients: placebo four patients; for Patients who reported episodes of hypoglycemia: placebo three patients
Description: This was a randomized, single- and double-blind, three-arm parallel group, placebo-controlled trial to determine if dapagliflozin effectively lowers hyperglycemia in highly insulin-resistant T2DM patients poorly controlled with insulin plus metformin and/or thiazolidinediones. The trial consisted of a qualification period of 10 to 21 days, a treatment phase of 12 weeks, and a follow-up phase of 4 weeks. During qualification and until day 1, patients maintained their stable dose of open-label OADs, as well as their stable dose of prescribed insulin.
The treatment phase utilized an adaptive trial design with two cohorts: Cohort 1, the insulin dose-setting group; and Cohort 2, the main experimental group. The purpose of Cohort 1 was to determine the ideal starting dose of insulin least likely to cause hypoglycemia when dapagliflozin would be added. In Cohort 1, four patients were assigned to 20 mg single-blind dapagliflozin on day 1 after having their insulin dose decreased by 50%, the greatest decrement possible in this adaptive design. These patients underwent 48-hour continuous blood glucose monitoring (CGM) during the first week of treatment. Pursuant to the protocol, if at least one patient recorded a CGM value ≦100 mg/dL, confirmed by self-monitoring of blood glucose (SMBG), the total daily insulin dose for patients in Cohort 2 would be set at 50% of their usual dose that is, at an average of 52 to 54 units of insulin daily, and lesser dose reductions of insulin would not be tested. […] Patients in Cohort 2 were randomized on day 1 in a 1:1:1 ratio to double-blind placebo, 10 mg dapagliflozin or 20 mg dapagliflozin once daily, in addition to their open-label OAD(s) and 50% of their usual daily insulin, that is an average of 52 to 54 units of insulin daily.
Patients were scheduled for visits at weeks 1, 2, 4, 6, 8, 10, and 12 of treatment, and performed SMBG 5 times daily during the 3 to 5 days prior to visits. No dose modifications of blinded study medication or OAD(s) were allowed during the treatment phase. Guidelines were in place throughout the trial for managing hypo- and hyperglycemia. […] Additional down-titration could be implemented as clinically indicated to manage the risk of hypoglycemia.
Safety outcomes were assessed by treatment-emergent adverse events, vital signs, ECGs and laboratory measurements, including 24-hour urine collections for volume and electrolytes.

[3] = Dapagliflozin 20 mg + insulin + OAD, week 12 LOCF
[4] = Dapagliflozin 20 mg + insulin + OAD, week 12 LOCF, ANCOVA-adjusted, excludes data after insulin up-titration
[5] = Dapagliflozin 20 mg + insulin + OAD, week 12 LOCF, ANCOVA-adjusted, excludes data after insulin up-titration, listed as dapagliflozin
[6] = Dapagliflozin 20 mg + insulin + OAD, week 12 LOCF, excludes data after insulin up-titration
[7] = Dapagliflozin 20 mg + insulin + OAD, week 12 LOCF, of 23 patients, excludes data after insulin up-titration

CCOc1ccc(Cc2cc([C@@H]3O[C@H](CO)[C@@H](O)[C@H](O)[C@H]3O)ccc2Cl)cc1 [Dapagliflozin, (2S,3R,4R,5S,6R)-2-(4-chloro-3-(4-ethoxybenzyl)phenyl)-6-(hydroxymethyl)tetrahydro-2H-pyran-3,4,5-triol]
Total daily insulin dose, mean (SD), End of Double-blind (Week 12 LOCF) ([1]; Dapagliflozin 20 mg + insulin + OAD, includes data after insulin up-titration, U = units of U100 insulin): 53.5 (32.1) U | Postprandial glucose, mean (SD), End of Double-blind (Week 12 LOCF) ([1]; Dapagliflozin 20 mg + insulin + OAD, measured at 120 minutes by OGTT, excludes data after insulin up-titration): 272.6 (51.2) mg/dL | Fasting plasma glucose change from baseline, difference vs placebo + insulin + OAD, mean (95% CI) [1, 3]: −27.4 (−50.3 to −4.6) mg/dL | HbA1c change from baseline, difference vs placebo + insulin + OAD, mean (95% CI) [1, 3]: −0.78 (−1.16 to −0.40) % | Patients with ↓ HbA1c ≧ 0.5%, difference in proportions vs placebo + insulin + OAD (95% CI) [1, 3]: 49.4 (20.1 to 72.4) % | Total daily insulin dose change from baseline, difference vs placebo + insulin + OAD, mean (95% CI) [1, 3]: −2.5 (−10.2 to 5.1) U | Weight change from baseline, difference vs placebo + insulin + OAD, mean (95% CI) [1, 3]: −2.4 (−3.8 to −1.0) kg | Postprandial glucose, change from baseline, mean (95% CI) ([1]; Dapagliflozin 20 mg + insulin + OAD, week 12 LOCF, 120 minutes by OGTT, excludes data after insulin up-titration): −41.9 (−74.8 to −8.9) mg/dL | Fasting plasma glucose, change from baseline, mean (95% CI) [1, 4]: −9.6 (−25.6 to 6.3) mg/dL | HbA1c, change from baseline, mean (95% CI) [1, 4]: −0.69 (−0.94 to −0.43) % | Weight, change from baseline, mean (95% CI) [1, 4]: −4.3 (−5.3 to −3.3) kg | Fasting plasma glucose, change from baseline, mean (95% CI) [1, 5]: -9.6 mg/dL | Weight, change from baseline, mean (95% CI) [1, 5]: -4.3 kg | Total daily insulin dose, change from baseline, mean (95% CI) ([1]; Dapagliflozin 20 mg + insulin + OAD, week 12 LOCF, ANCOVA-adjusted, includes data after insulin up-titration): −0.8 (−6.1 to 4.5) U | Patients with HbA1c < 7.0%, (%), response [1, 6]: 4.3% | Patients with ↓ HbA1c ≧ 0.5%, (%), response [1, 6]: 65.2% | HbA1c change from baseline, difference vs placebo + insulin + OAD, mean (95% CI) ([1]; Dapagliflozin 20 mg + insulin + OAD, week 12 LOCF, listed as dapagliflozin): −0.78% | Patients with HbA1c < 7.0%, No., response [1, 7]: 1 | Patients with ↓ HbA1c ≧ 0.5%, No., response [1, 7]: 15 | HbA1c, mean (SD), End of Double-blind (Week 12 LOCF) ([1]; Dapagliflozin 20 mg once daily + insulin (50% of usual dose) + OAD, Cohort 2, excludes data after insulin up-titration): 7.8 (0.6) % | Patients who required up-titration of insulin ([1]; dapagliflozin 10 mg arm (n = 24)): 1 patient | Patients exposed to study medication for ≧84 days prior to insulin up-titration ([1]; dapagliflozin 10 mg arm): 66.7% | Patients who required up-titration of insulin ([1]; dapagliflozin 20 mg arm (n = 24)): 3 patients | Patients exposed to study medication for ≧84 days prior to insulin up-titration ([1]; dapagliflozin 20 mg arm): 66.7% | Additional weight loss compared to placebo ([1]; dapagliflozin treatment (dose not distinguished), insulin dose reduced by 50%): -2.5 kg | HbAlc, PPG and weight versus placebo, in words ([1]; insulin-resistant patients who had their baseline insulin reduced 50%): decreased HbAlc, PPG and weight more than placebo | Weight lowering versus placebo, in words ([1]; week 12 (LOCF)): more likely to lower weight than placebo | Adverse events, % of patients ([2]; 10 mg dapagliflozin arm): 75.0% | Patients with genital tract infections ([2]; 10 mg dapagliflozin group): none | Events of pre-renal azotemia ([2]; 10 mg dapagliflozin, patient on enalapril, carvedilol and furosemide, discontinued after eleven days, resolved with oral rehydration): One | Events of pollakiuria, patients ([2]; 10 mg dapagliflozin): two | Adverse events, % of patients ([2]; 20 mg dapagliflozin arm): 66.7% | Patients who reported episodes of hypoglycemia ([2]; 20 mg dapagliflozin group (n = 24)): six | Patients with genital tract infections ([2]; 20 mg dapagliflozin group): five | Events of pollakiuria, patients ([2]; 20 mg dapagliflozin): three | Patients who reported polyuria ([2]; dapagliflozin 10 mg arm): One | Patients with adverse events that led to discontinuation ([2]; dapagliflozin 10 mg arm): One | Patients who reported episodes of hypoglycemia ([2]; dapagliflozin 10 mg group (n = 24)): seven | Cases of microalbuminuria (resulted in discontinuation from the study) ([2]; dapagliflozin 20 mg arm): One | Patients who reported polyuria ([2]; dapagliflozin 20 mg arm): One | Patients with adverse events that led to discontinuation ([2]; dapagliflozin 20 mg arm): One | Patients who experienced a serious adverse event ([2]; dapagliflozin 20 mg group): one | Patients who reported a urinary tract infection ([2]; dapagliflozin 20 mg group): One | Total hypoglycemic events versus placebo, in words ([2]; major/minor episodes were balanced across all groups): more frequently reported with dapagliflozin treatment than with placebo | Deaths, in words ([2]; whole study): no deaths
